33 compounds from patent US11078182B2, “Heteroaromatic compounds as Vanin inhibitors” (Boehringer Ingelheim International GmbH, priority 2018, dated 2021) can be followed below.

Experiment [1] concerns the target FLAG-tagged Vanin-1 (AA 22-493, T26I) (Homo sapiens (Human), UniProt O95497, T26I). Nature of the experiment: Vanin-1 enzymatic assay. Particulars: 0.1 nM Vanin-1, 3 μM D-pantethine, pantothenic acid formation by RapidFire MS; geometric mean if multiple measurements; read-out: VNN 1 IC50. It counts as biochemical. As for the experimental part:
The test compounds are dissolved in 100% DMSO at a concentration of 10 mM and in a first step diluted in DMSO to a concentration of 5 mM, followed by serial dilution steps in 100% DMSO. Dilution factor and number of dilution steps may vary according to needs. Typically 8 different concentrations by 1:5 dilutions are prepared, a further intermediate dilutions of the substances is carried out with assay buffer resulting in 1% final DMSO concentration in the assay.
0.1 nM of FLAG-tagged Vanin-1 (AA 22-493, T26I, produced internally) and test compounds are incubated at room temperature for 20 minutes in assay buffer (1 mM DTT, 0.0025% Brij-35, 50 mM HEPES, pH7.5). D-Pantethine (Sigma, Cat #P2125-5G) in assay buffer is added (final concentration 3 μM) and incubated for additional 30 minutes at room temperature. Total assay volume typically is 40 μl but might be adjusted according to needs. Reaction is stopped by adding equal volume of stop solution as the reaction mixture to reach 100 nM HD-pantothenic acid (as an internal standard) and 1% TFA. Assay plates are centrifuged for 2 minutes and the formation of pantothenic acid is detected by RapidFire Mass Spectrometry (mobile phase A: 0.1% formic acid and 0.01% trifluoroacetic acid in water; mobile phase B: 47.5% acetonitrile, 47.5% methanol, 0.1% formic acid and 0.01% trifluoroacetic acid in water) using a C18, 12 μL cartridge (Agilent Cat #G9205A).
The values given in Table I result from measurements of one or more samples. In case of multiple measurements the geometric mean values are given.

Another experiment has as its system Pantetheinase (vanin). Nature of the experiment: Human Whole Blood assay. It counts as cell-based. The following applies: pantethine substrate, pantothenic acid formation by RapidFire MS, read-out: HWB IC50. How it is done: Pantetheinase (vanin) converts panteheine into pantothenic acid and cysteamine. Accordingly, in the described protocol vanin activity is quantified by formation of pantothenic acid after pantetheine supplementation via pantethine. The assay is applicable to identify vanin inhibitors. Compound stocks are dissolved in DMSO at 10 mM. Further dilutions are performed in RPMI 1640 medium (Gibco, #A-10491-01) and final concentrations in the assay are 0.032 nM-500 nM.
Human blood is drawn into a blood bag (1% heparin, 50 I.E./mL). Blood is aliquoted into cavities of 96-deep-well plates at 290 μL and mixed with 10 μL compound solution or vehicle (30 sec at 1400 rpm on a shaker). Equilibration follows at room temperature, 250 rpm and for 30 min. The assay is starts by adding 10 μL of substrate solution (20 μM pantethine in 1 mM DTT, 0.0025% Brij-35, 50 mM HEPES, pH7.5) to each well, except for some blank wells which receive […] substrate buffer (1 mM DTT, 0.0025% Brij-35, 50 mM HEPES, pH7.5) only. Samples are thoroughly shaken (30 sec, 1400 rpm) and reaction is allowed to take place at room temperature, 250 rpm and for 5 min. The reaction is stopped by addition of a vanin tool inhibitor in excess (BI-1 total conc. 10 μM). Centrifugation of the plate follows at 4° C., 665 G for 10 min. Then the blood plasma samples (100 μL) are transferred into another 96-deep-well plate and proteins are precipitated (5 min on ice) by adding 100 μL of ice cold precipitation solution (1 μM labelled pantothenic acid (di-β-alanine-13C6,15N2 calcium salt, Sigma, #705837) in acetonitrile). Afterwards the plate is centrifuged (4° C., 3220 G, 10 min) and supernatants (50 μL) are collected into another 96-deep-well plate and mixed (10 sec, 1400 rpm) with 150 μL ice cold formic acid (0.1%, Carl Roth GmbH+Co.KG, #CP03.1). The formation of pantothenic acid is detected by RapidFire Mass Spectrometry. A TripleQuad 6500+ (ABSciex, Germany) is equipped with an LC-1290 system, a RapidFire autosampler (Agilent, Germany) and a C18 cartridge Type C 12 μL (Agilent Cat #G9526-80000). Mobile phase A is consisting of 0.09% formic acid and 0.01% trifluoroacetic acid in water and mobile phase B of 0.09% formic acid and 0.01% trifluoroacetic acid in acetonitrile/methanol/water=47.5/47.5/5.

Chain of FLAG-tagged Vanin-1 (AA 22-493, T26I) (O95497 22-493 T26I): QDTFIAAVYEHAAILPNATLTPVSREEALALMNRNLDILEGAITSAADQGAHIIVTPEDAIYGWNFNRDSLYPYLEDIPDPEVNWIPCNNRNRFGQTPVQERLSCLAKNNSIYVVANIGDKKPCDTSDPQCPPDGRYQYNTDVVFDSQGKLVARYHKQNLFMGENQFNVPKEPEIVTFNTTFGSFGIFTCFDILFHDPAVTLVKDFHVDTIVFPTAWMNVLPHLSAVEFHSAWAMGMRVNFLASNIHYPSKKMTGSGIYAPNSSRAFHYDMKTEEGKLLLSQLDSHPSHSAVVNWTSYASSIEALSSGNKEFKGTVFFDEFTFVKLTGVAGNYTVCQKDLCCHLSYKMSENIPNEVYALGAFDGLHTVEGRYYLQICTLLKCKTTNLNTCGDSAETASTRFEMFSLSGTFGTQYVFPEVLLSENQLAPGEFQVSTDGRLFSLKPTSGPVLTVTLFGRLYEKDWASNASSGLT

For the compound `CC1(C#N)CCN(C(=O)c2ccc(NC(C)(C)C)nc2)C1` (single isomer, unassigned) [Example 7, 1-[6-(tert-Butylamino)pyridine-3-carbonyl]-3-methylpyrrolidine-3-carbonitrile], the IC50 was determined as 0.3 nM in experiment [1] and 3.9 nM in the experiment on Pantetheinase (vanin). On to `CN(C(=O)C1CCC1)[C@H]1CCN(C(=O)c2ccc(NC(C)(C)C)nc2)C1` [Example 1.1, N-[(3S)-1-[6-(tert-Butylamino)pyridine-3-carbonyl]pyrrolidin-3-yl]-N-methylcyclobutanecarboxamide], for which the IC50 in experiment [1] stood at 0.2 nM; in the experiment on Pantetheinase (vanin) it was 4.3 nM.

Take `CN(C(=O)C1CC(F)(F)C1)[C@H]1CCN(C(=O)c2ccc(NC(C)(C)C)nc2)C1` [Example 1.2]: the IC50 in experiment [1] stood at 0.2 nM; in the experiment with Pantetheinase (vanin) it was 3.6 nM.

On to `CN(C(=O)[C@@H]1CCCO1)[C@H]1CCN(C(=O)c2ccc(NC(C)(C)C)nc2)C1` [Example 1.3], for which the IC50 in experiment [1] came out at 0.3 nM; with Pantetheinase (vanin) it was 2.7 nM. The like results for `CN(C(=O)c1ccc(Cl)s1)[C@H]1CCN(C(=O)c2ccc(NC(C)(C)C)nc2)C1` [Example 1.4] were, in that order, 0.3 nM and 25.2 nM. On the same counts, the results for `CN(C(=O)C1CC1)[C@H]1CCN(C(=O)c2ccc(NC(C)(C)C)nc2)C1` [Example 1.5] are 0.3 nM and 4.2 nM. With `CC(C)(C)Nc1ccc(C(=O)N2CC[C@H](N3CCOC3=O)C2)cn1` [Example 1.6], the IC50 was 0.3 nM in experiment [1] and 4 nM in the experiment on Pantetheinase (vanin). The like results for `CN(C(=O)c1cc(C(F)(F)F)nn1C)[C@H]1CCN(C(=O)c2ccc(NC(C)(C)C)nc2)C1` [Example 1.7] were, in that order, 0.3 nM and 5 nM. On to `CN(C(=O)C1(C#N)CC1)[C@H]1CCN(C(=O)c2ccc(NC(C)(C)C)nc2)C1` [Example 1.8], for which the IC50 in experiment [1] worked out at 0.3 nM; with Pantetheinase (vanin) it was 5.8 nM. Regarding `CC(C)(C)Nc1ccc(C(=O)N2CC[C@H](N3CCCC3=O)C2)cn1` [Example 1.9], the IC50 in experiment [1] turned out to be 0.4 nM; with Pantetheinase (vanin), 3.1 nM. For the compound `CN(C(=O)C1CCOC1)[C@H]1CCN(C(=O)c2ccc(NC(C)(C)C)nc2)C1` (some centres unmarked) [Example 1.10], the IC50 in experiment [1] turned out to be 0.4 nM. `CN(C(=O)c1ccc(F)cc1)[C@H]1CCN(C(=O)c2ccc(NC(C)(C)C)nc2)C1` [Example 1.11]: the figures for the IC50 (in experiment [1]; with Pantetheinase (vanin)) were 0.4 nM and 7.5 nM, respectively. `Cc1cc(C(=O)N(C)[C@H]2CCN(C(=O)c3ccc(NC(C)(C)C)nc3)C2)[nH]n1` [Example 1.12]: the IC50 in experiment [1] came out at 0.4 nM; in the experiment with Pantetheinase (vanin), 9.7 nM.

Take `CN(c1ncccn1)[C@H]1CCN(C(=O)c2ccc(NC(C)(C)C)nc2)C1` [Example 1.13]: the IC50 came out at 0.4 nM in experiment [1] and 12.6 nM in the experiment with Pantetheinase (vanin).

Regarding `CC(C)(C)Nc1ccc(C(=O)N2CC[C@H](N3CCCCC3=O)C2)cn1` [Example 1.14], the half-maximal inhibitory concentration (IC50) in experiment [1] was found to be 0.8 nM; with Pantetheinase (vanin), 12.5 nM.

With `CN(C(=O)[C@H]1CCCO1)[C@H]1CCN(C(=O)c2ccc(NC(C)(C)C)nc2)C1` [Example 1.15], in experiment [1], the IC50 turned out to be 1 nM.

As to `CN(C(=O)CN1CCOCC1)[C@H]1CCN(C(=O)c2ccc(NC(C)(C)C)nc2)C1` [Example 1.16], the IC50 in experiment [1] came to 1.3 nM.

In the case of `CN(C(=O)C1CC1)[C@H]1CCN(C(=O)c2ccc(NC3(C)CCC3)nc2)C1` [Example 2.1, N-Methyl-N-[(3S)-1-{6-[(1-methylcyclobutyl)amino]pyridine-3-carbonyl}pyrrolidin-3-yl]cyclopropanecarboxamide], the half-inhibitory concentration (IC50) in experiment [1] worked out at 0.3 nM; in the experiment with Pantetheinase (vanin), 4.6 nM. As for `CC(=O)N(C)[C@H]1CCN(C(=O)c2ccc(NC(C)(C)C(C)C)nc2)C1` [Example 2.2], the values for the IC50 (in experiment [1]; in the experiment on Pantetheinase (vanin)) were 0.4 nM and 7.7 nM, respectively. Take `CN(C(=O)C1CC1)[C@H]1CCN(C(=O)c2ccc(NC3(C)CCCC3)nc2)C1` [Example 2.3]: the IC50 in experiment [1] is 0.7 nM.

Turning to `CC1(Nc2ccc(C(=O)N3CC[C@H](N4CCCC4=O)C3)cn2)CCCCC1` [Example 2.4], in experiment [1], the IC50 was 1.7 nM.

Consider `CN(C(=O)C1CC1)[C@H]1CCN(C(=O)c2ccc(NC3(C)CCOCC3)nc2)C1` [Example 2.5], for which the IC50 in experiment [1] was 7.3 nM.

On to `CN(C(=O)C1CC1)[C@H]1CCN(C(=O)c2ccc(NC34CC(C3)C4)nc2)C1` [Example 2.6], for which the results for the IC50 (in experiment [1]; with Pantetheinase (vanin)) were 0.4 nM and 9.2 nM, respectively. `CC(=O)N(C)[C@H]1CCN(C(=O)c2ccc(NC(C)(C)CCO)nc2)C1` [Example 3.1, N-[(3S)-1-{6-[(4-Hydroxy-2-methylbutan-2-yl)amino]pyridine-3-carbonyl}pyrrolidin-3-yl]-N-methylacetamide]: the IC50 amounted to 0.2 nM in experiment [1] and 1.6 nM in the experiment with Pantetheinase (vanin). `CCC(C)(C)Nc1ccc(C(=O)N2CC[C@H](N(C)C(C)=O)C2)cn1` [Example 3.2]: the IC50 is 0.2 nM in experiment [1] and 3.1 nM in the experiment with Pantetheinase (vanin).

In the case of `CC(=O)N(C)[C@H]1CCN(C(=O)c2ccc(NC(C)(C)Cc3ccc(F)cc3)nc2)C1` [Example 3.3], the IC50 in experiment [1] is 0.4 nM; in the experiment with Pantetheinase (vanin), 8.7 nM. Turning to `CC(=O)N(C)[C@H]1CCN(C(=O)c2ccc(NC(C)(C)CCn3cncn3)nc2)C1` [Example 3.4], the IC50 in experiment [1] came to 2.1 nM. As for `CN(C(=O)N1CCOCC1)[C@H]1CCN(C(=O)c2ccc(NC(C)(C)C)nc2)C1` [Example 4.1, N-[(3S)-1-[6-(tert-Butylamino)pyridine-3-carbonyl]pyrrolidin-3-yl]-N-methylmorpholine-4-carboxamide], the IC50 in experiment [1] turned out to be 0.3 nM; in the experiment on Pantetheinase (vanin) it was 3.2 nM.

Take `CN1CCN(C(=O)N(C)[C@H]2CCN(C(=O)c3ccc(NC(C)(C)C)nc3)C2)CC1` [Example 4.2]: the IC50 in experiment [1] is 1.2 nM. `CC(=O)N(C)[C@H]1CCN(C(=O)c2ccc(NC(C)(C)C)nc2)C1` [Example 5.1, N-[(3S)-1-[6-(tert-Butylamino)pyridine-3-carbonyl]pyrrolidin-3-yl]-N-methylacetamide]: the IC50 in experiment [1] was 0.5 nM; in the experiment on Pantetheinase (vanin) it was 3.2 nM. In the case of `CC(=O)N(C)[C@@H]1CCN(C(=O)c2ccc(NC(C)(C)C)nc2)C1` [Example 5.2], the IC50 in the experiment with Pantetheinase (vanin) was determined as 267 nM. On to `CC1CN([C@H]2CCN(C(=O)c3ccc(NC(C)(C)C)nc3)C2)C(=O)O1` (stereo partly drawn) [Example 6, 3-[(3S)-1-[6-(tert-Butylamino)pyridine-3-carbonyl]pyrrolidin-3-yl]-5-methyl-1,3-oxazolidin-2-one], for which, in experiment [1], the IC50 was 1.6 nM. For the compound `CC(C)(C)Nc1ccc(C(=O)N2CC(C)(c3ccccn3)C2)cn1` [Example 8, N-tert-Butyl-5-[3-methyl-3-(pyridin-2-yl)azetidine-1-carbonyl]pyridin-2-amine], the half-maximal inhibitory concentration (IC50) was 0.3 nM in experiment [1] and 2.7 nM in the experiment with Pantetheinase (vanin).

Usually IC50 stands for the concentration that gives 50% inhibition.
